{"source": "ChEMBL document CHEMBL3877316", "about": "“Synthesis of pharmacologically important naphthoquinones and anticancer activity of 2-benzyllawsone through DNA topoisomerase-II inhibition” (Bioorg Med Chem, 2017)", "key": {"[1]": {"experiment": "Antiproliferative activity against human FADU cells after 48 hrs by SRB assay", "assay_type": "functional, cell-based"}, "[2]": {"experiment": "Antiproliferative activity against human DLD1 cells after 48 hrs by SRB assay", "assay_type": "functional, cell-based", "conditions": "DLD-1, 48 h"}, "Mus musculus [3]": {"test_system": "Mus musculus", "experiment": "Acute toxicity in Swiss albino mouse assessed as body weight at 50 mg/kg, po qd administered as single dose for 7 days (reference value: 27.73 +/- 0.94 g)", "assay_type": "organism-based", "conditions": "in vivo, 168 h"}, "Mus musculus [4]": {"test_system": "Mus musculus", "experiment": "Acute toxicity in Swiss albino mouse assessed as serum RBC level at 300 mg/kg, po qd administered as single dose for 7 days (reference value: 9.07 +/- 1.13 million/mm3)", "assay_type": "organism-based", "conditions": "in vivo, 168 h"}, "Mus musculus [5]": {"test_system": "Mus musculus", "experiment": "Acute toxicity in Swiss albino mouse assessed as serum albumin level at 50 mg/kg, po qd administered as single dose for 7 days (reference value: 2.49 +/- 0.17 g/dl)", "assay_type": "organism-based", "conditions": "in vivo, 168 h"}, "Mus musculus [6]": {"test_system": "Mus musculus", "experiment": "Acute toxicity in Swiss albino mouse assessed as serum triglycerides level at 300 mg/kg, po qd administered as single dose for 7 days (reference value: 107.9 +/- 10.7 mg/dl)", "assay_type": "organism-based", "conditions": "in vivo, 168 h"}, "Mus musculus [7]": {"test_system": "Mus musculus", "experiment": "Acute toxicity in Swiss albino mouse assessed as effect on neutrophil count up to 1000 mg/kg, po qd administered as single dose for 7 days", "assay_type": "organism-based", "conditions": "in vivo, 168 h"}}}
{"smiles": "O=C1C=C(OCc2ccccc2)C(=O)c2ccccc21", "values": [{"measurement": "IC50", "setting": "[1]", "value": 5.27, "unit": "µM"}, {"measurement": "IC50", "setting": "[2]", "value": 16.2, "unit": "µM"}, {"measurement": "Activity", "setting": "Mus musculus [3]", "value": 26.76, "unit": "g"}, {"measurement": "Activity", "setting": "Mus musculus [4]", "value": 9.59, "unit": "million/mm3"}, {"measurement": "Activity", "setting": "Mus musculus [5]", "value": 2.7, "unit": "g/dL"}, {"measurement": "Activity", "setting": "Mus musculus [6]", "value": 119.3, "unit": "mg/dL"}, {"measurement": "Activity", "setting": "Mus musculus [7]", "value": "Non-Toxic"}]}
